Reference: US20250346550A1, “METHODS OF MODULATING ENDONUCLEASE G USING RESVERATROL AND ITS DERIVATIVES” (THE REGENTS OF THE UNIVERSITY OF COLORADO A BODY CORPORATE, priority 2022, published 2025)

What was measured:
[1] = tested on: cross-fertilized embryos with persistent uaDf5 paternal mitochondria (loss of lgg-1); assay: embryonic lethality caused by persistent uaDf5 paternal mitochondria; type: in vivo, C. elegans; conditions: 100 μM, males pretreated eight hours before mating, 25° C.
Procedure: FIG. 10. Trans-resveratrol reduces embryonic lethality through enhancing removal of mutant paternal mitochondria. The embryonic lethality rate was scored in cross-fertilized embryos from crosses of the indicated genotypes. Males were pretreated with either 0.5% ethanol (Mock) or […] trans-resveratrol (trans) for eight hours before mating. All males carried smIs42 to assist identification of zygotes. Data are means SEM; n>200 embryos per cross at 25° C. n.s., no significant difference; *P<0.05 using two-sided, unpaired t-test.
Several studies have shown that abnormal persistence of paternal mitochondria is detrimental to normal development and causes various deficiencies, including neurological and muscular defects, which lack treatment options.

[2] = tested on: α-synuclein-induced dopaminergic neuronal death in baIn11 animals; assay: α-synuclein-based Parkinson's Disease model, DA neuronal death; type: in vivo, C. elegans; conditions: 100 μM; for effect on α-synuclein-induced DA neuronal death: adult day 2 baIn11 animals vs 0.25% ethanol
Source text: FIG. 8. […] In each experiment, 300 animals were scored to determine the percentage of animals losing at least one dopaminergic neuron in the head. Data are mean±s.e.m. *P<0.05; ***P<0.001, two-sided, unpaired t-test.
FIG. 13. […] In each experiment, 300 animals were scored to determine the percentage of animals losing at least one of the six dopaminergic neurons in the head. Data are mean±s.e.m. ****P<0.001, two-sided, unpaired t-test.
In addition to PME and apoptosis, EndoG was previously shown to play an important role in mediating dopaminergic (DA) neuronal death induced by expression of human α-synuclein, which is widely considered to be a major proponent of Parkinson's disease. However, the mechanism by which EndoG mediates α-synuclein-induced neurodegeneration is unclear. In a C. elegans α-synuclein-based Parkinson's Disease model, co-expression of GFP and human α-synuclein in C. elegans dopaminergic neurons under the control of the promoter of the dat-1 gene, which encodes a dopamine transporter, from an integrated transgene baIn11 (Pdat-1::gfp/Pdat-1::α-synuclein) caused DA neuronal death in 30% of adult baIn11 animals (FIG. 8a). The cps-6(tm3222) mutation blocked DA neuronal death in adult baIn11 animals (FIG. 8a), confirming that CPS-6 is important for α-synuclein-induced DA neuronal death.

| SMILES | embryonic lethality caused by uaDf5 paternal mitochondria [1] | adult baIn11 animals with neurodegeneration (DA neuronal loss) ([2]; adult day 2, mock 30%) [%] | effect on α-synuclein-induced DA neuronal death [2] | adult baIn11 animals protected from neurodegeneration ([2]; adult day 2) [%] |
| --- | --- | --- | --- | --- |
| Oc1ccc(/C=C/c2cc(O)cc(O)c2)cc1 [trans-resveratrol, 3,5,4′-trihydroxy-trans-stilbene] | significantly reduced embryonic lethality | 40 | enhanced dopaminergic neuron loss |  |
| Oc1ccc(/C=C\c2cc(O)cc(O)c2)cc1 [cis-resveratrol] |  |  | strongly inhibited DA neuronal death | 94 |
